Source: ChEMBL document CHEMBL4651402, “Screening of ~5500 FDA-approved drugs and clinical candidates for anti-SARS-CoV-2 activity” (2021)

Tested on: SARS-CoV-2
Assay: microbe, parasite or virus in culture
Conditions: Severe acute respiratory syndrome coronavirus 2, Vero C1008, 48 h

| SMILES | IC50 | IC50 (read-out: pIC50 (converted)) |
| --- | --- | --- |
| CN(C)CC(c1ccc(O)cc1)C1(O)CCCCC1 (stereo unspecified) [DESVENLAFAXINE] | > 20 µM | > 20 µM |
| Nc1ncnc(Nc2ccccc2)n1 [AMANOZINE] | > 20 µM | > 20 µM |
| Cc1nc2ccccn2c(=O)c1CCN1CCC(C(=O)c2ccc(F)cc2)CC1 [PIRENPERONE] | > 20 µM | > 20 µM |
| CC1(C)C[C@@H]1C(=O)N/C(=C\CCCCSC[C@H](N)C(=O)O)C(=O)O [CILASTATIN] | > 20 µM | > 20 µM |
| CCOCn1c(Cc2ccccc2)c(C(C)C)c(=O)[nH]c1=O [EMIVIRINE] | > 20 µM | > 20 µM |
| CC(C)CC(N(C)C)C1(c2ccc(Cl)cc2)CCC1 (stereo unspecified) [SIBUTRAMINE] | > 20 µM | > 20 µM |
| O=C(c1ccc2nccnc2c1)N1CCCCC1 [CX516] | > 20 µM | > 20 µM |
| CCOC(=O)NNc1nncc2ccccc12 [TODRALAZINE] | > 20 µM | > 20 µM |
| CC12CCC3C(CC[C@H]4CC(O)CCC34C)C1CCC2O (stereo partly specified) | > 20 µM | > 20 µM |
| O=c1[nH]cc(F)c(=O)[nH]1 [FLUOROURACIL] | > 20 µM | > 20 µM |
| c1ccc2c3c([nH]c2c1)[C@H]1[C@H]2CC[C@H]([C@@H]4CCCN[C@@H]42)N1CC3 | > 20 µM | > 20 µM |
| N=C(NCCCCCCNC(=N)NC(=N)Nc1ccc(Cl)cc1)NC(=N)Nc1ccc(Cl)cc1 [CHLORHEXIDINE] | > 20 µM | > 20 µM |
| C[C@]12C[C@H]3S[C@H]3C[C@@H]1CC[C@@H]1[C@@H]2CC[C@]2(C)[C@@H](O)CC[C@@H]12 [EPITIOSTANOL] | > 20 µM | > 20 µM |
| NC(N)=Nc1nc(CSCC/C(N)=N/S(N)(=O)=O)cs1 [FAMOTIDINE] | > 20 µM | > 20 µM |
| NC(=O)c1[nH]cnc1N | > 20 µM | > 20 µM |
| CC(CNS(=O)(=O)C(C)C)c1ccc(NC(=O)c2cc(F)cc(F)c2)cc1 (stereo unspecified) | > 20 µM | > 20 µM |
| CC(=O)N[C@@H](C=O)[C@@H](O)[C@H](O)[C@H](O)CO | > 20 µM | > 20 µM |
| Cc1nccc2c1[nH]c1cc(O)ccc12 | > 20 µM | > 20 µM |
| CC(=O)NS(=O)(=O)c1ccc(NC(=O)c2ccccc2C(=O)O)cc1 | > 20 µM | > 20 µM |
| Cc1cc(CC(=O)O)c(C)n1-c1ccc(Cl)cc1 [CLOPIRAC] | > 20 µM | > 20 µM |
| Cc1cc(-c2ccccc2)nnc1NCCN1CCOCC1 [MINAPRINE] | > 20 µM | > 20 µM |

| SMILES | IC50 | IC50 (read-out: pIC50 (converted)) |
| --- | --- | --- |
| C=C(C)[C@@H]1[C@@H]2OC(=O)[C@H]1[C@]1(O)C[C@H]3O[C@]34C(=O)O[C@H]2[C@]14C.CC(C)(O)[C@@H]1[C@@H]2OC(=O)[C@H]1[C@]1(O)C[C@H]3O[C@]34C(=O)O[C@H]2[C@]14C | > 20 µM | > 20 µM |
| COc1ccc2[nH]c([S@@+]([O-])Cc3ncc(C)c(OC)c3C)nc2c1 [ESOMEPRAZOLE] | > 20 µM | > 20 µM |
| O=c1c(-c2ccc(O)cc2)coc2cc(O)ccc12 [DAIDZEIN] | > 20 µM | > 20 µM |
| CNn1cc(C(=O)O)c(=O)c2cc(F)c(N3CCN(C)CC3)cc21 [AMIFLOXACIN] | > 20 µM | > 20 µM |
| COc1cc2[nH]c(C)c(CCN3CCN(c4ccccc4)CC3)c2cc1OC [OXYPERTINE] | > 20 µM | > 20 µM |
| CC(=O)Nc1ccccc1 [ACETANILIDE] | > 20 µM | > 20 µM |
| O=C(CCCN1CCC(O)(c2ccc(Br)cc2)CC1)c1ccc(F)cc1 [BROMPERIDOL] | > 20 µM | > 20 µM |
| O=C1OC(CN2CCOCC2)CN1/N=C/c1ccc([N+](=O)[O-])o1 (stereo unspecified) [FURALTADONE] | > 20 µM | > 20 µM |
| C[N+]1(CCC(C(N)=O)(c2ccccc2)c2ccccc2)CCCCCC1 [BUZEPIDE] | > 20 µM | > 20 µM |
| CC(=O)N[C@@H](CCC(N)=O)C(=O)O | > 20 µM | > 20 µM |
| C[N+](C)(C)CCCCC[N+](C)(C)C [PENTAMETHONIUM] | > 20 µM | > 20 µM |
| COC(=O)Nc1c(N)nc(-c2nn(Cc3ccccc3F)c3ncccc23)nc1N | > 20 µM | > 20 µM |
| Nc1nonc1/C(=N/O)Nc1ccc(F)c(Cl)c1 | > 20 µM | > 20 µM |
| CCC1=C[C@@H]2CN3CCc4c([nH]c5ccccc45)[C@@](C(=O)OC)(C2)[C@H]13 | > 20 µM | > 20 µM |
| CNC(=O)c1ccc(N2C(=S)N(c3ccc(C#N)c(C(F)(F)F)c3)C(=O)C2(C)C)cc1F [ENZALUTAMIDE] | > 20 µM | > 20 µM |
| NCCCNc1ccc2c3c(nn2CCNCCO)-c2c(O)ccc(O)c2C(=O)c13 [PIROXANTRONE] | > 20 µM | > 20 µM |
| C=CC[C@]1(O)CC[C@H]2[C@@H]3CCC4=CC(=O)CCC4=C3C=C[C@@]21C [ALTRENOGEST] | > 20 µM | > 20 µM |
| CN1C[C@H](C(=O)N[C@]2(C)O[C@@]3(O)[C@@H]4CCCN4C(=O)[C@H](Cc4ccccc4)N3C2=O)C=C2c3cccc4[nH]cc(c34)C[C@H]21 [ERGOTAMINE] | > 20 µM | > 20 µM |
| O=C(O)c1ccccc1Nc1cccc(OCc2ccc3ccccc3n2)c1 [SR-2640] | > 20 µM | > 20 µM |
| CCCN1CCOC2c3cc(O)ccc3CCC21 (stereo unspecified) | > 20 µM | > 20 µM |
| CON(C)C(=O)N1N=C(c2cc(F)ccc2F)S[C@@]1(CCCN)c1ccccc1 [FILANESIB] | > 20 µM | > 20 µM |

| SMILES | IC50 | IC50 (read-out: pIC50 (converted)) |
| --- | --- | --- |
| COCCOCCOCCOCCOC(=O)OC[n+]1ccc(N/C(=N/CCCCCCOc2ccc(Cl)cc2)NC#N)cc1 | > 20 µM | > 20 µM |
| CCOC(=O)Nc1ccc2c(c1)N(C(=O)CCN1CCOCC1)c1ccccc1S2 [MORICIZINE] | > 20 µM | > 20 µM |
| O=C(NC1CCNCC1)c1n[nH]cc1NC(=O)c1c(Cl)cccc1Cl [AT-7519] | > 20 µM | > 20 µM |
| O=C(O)P(=O)(O)O [FOSCARNET] | > 20 µM | > 20 µM |
| CC(C)C(=O)OC[C@H]1O[C@@H](n2ccc(N)nc2=O)[C@](C)(F)[C@@H]1OC(=O)C(C)C [MERICITABINE] | > 20 µM | > 20 µM |
| O=S(=O)(c1cccc2cnccc12)N1CCCNCC1 [FASUDIL] | > 20 µM | > 20 µM |
| CC(C)=CCOc1cc(NC(=S)c2ccoc2C)ccc1Cl [UC 781] | > 20 µM | > 20 µM |
| Cc1cn(-c2cc(NC(=O)c3ccc(C)c(Nc4nccc(-c5cccnc5)n4)c3)cc(C(F)(F)F)c2)cn1 [NILOTINIB] | > 20 µM | > 20 µM |
| CCCCC[C@H](O)/C=C/[C@@H]1[C@H]2C/C(=C/CCCC(=O)O)O[C@H]2C[C@H]1O [EPOPROSTENOL] | > 20 µM | > 20 µM |
| Cc1c(C)c2ccc(OCCCN3CCN(Cc4ccc(Cl)cc4)CC3)cc2oc1=O | > 20 µM | > 20 µM |
| O=C(O)c1ccccc1Nc1ccccc1 [FENAMIC ACID] | > 20 µM | > 20 µM |
| CCOC(=O)[C@H](CCc1ccccc1)N[C@@H](C)C(=O)N1[C@H](C(=O)O)C[C@@H]2CCC[C@@H]21 | > 20 µM | > 20 µM |
| c1ccc(C(Cc2noc(CCN3CCCCC3)n2)c2ccccc2)cc1 [PRENOXDIAZINE] | > 20 µM | > 20 µM |
| CC1(C)CC23C(=O)CCC(O)C2(C)CCC13 (stereo unspecified) [3-NOR-3-OXOPANASINSAN-6-OL] | > 20 µM | > 20 µM |
| NC1=NCC2c3ccccc3Cc3ccccc3N12 (stereo unspecified) [EPINASTINE] | > 20 µM | > 20 µM |
| Nc1[nH]ncc1-c1cc(Cl)ccc1Oc1cc(F)c(S(=O)(=O)Nc2cscn2)cc1Cl [PF-05089771] | > 20 µM | > 20 µM |
| CCC1(C)CC(=O)NC(=O)C1 [BEMEGRIDE] | > 20 µM | > 20 µM |
| CC(=O)O[C@]1(C(C)=O)CC[C@H]2[C@@H]3C=C(C)C4=CC(=O)CC[C@]4(C)[C@H]3CC[C@@]21C [MEGESTROL ACETATE] | > 20 µM | > 20 µM |
| CC1NCCOC1c1ccccc1 (stereo unspecified) [PHENMETRAZINE] | > 20 µM | > 20 µM |
| CC(=O)N1CCCC1C(=O)O (stereo unspecified) [N-ACETYLPROLINE] | > 20 µM | > 20 µM |
| CCCCCCCCCCCCN1CCCCCC1=O [LAUROCAPRAM] | > 20 µM | > 20 µM |
